# Where a name gives a salt, the structure may show the parent alone.
# Key:
# [1] = biological target: T1, dopamine receptors (^3 H-NPA binding sites) (Rattus norvegicus, UniProt P61169); test: In vitro inhibition of ^3 H-NPA binding to rat striatal homogenate; conditions: for reversal of inhibition of ^3 H-NPA binding by washing of membranes: FIG. 8
# [2] = tested on: dopamine receptors; test: Apomorphine-induced climbing in mice (climbing index); type: in vivo; conditions: for effect on apomorphine climbing: 10 mg/kg s.c.; for effect on apomorphine climbing index: apomorphine 1.0 mg/kg s.c.
# Description: Climbing behavior was measured by placing mice in individual cages (20×15×15 cm) lined with wire mesh. A "climbing index", i.e., the percentage of time spent climbing during the 30-minute period following the first climb, was determined.
# [3] = tested on: dopamine receptors; test: Apomorphine-induced stereotypy; type: in vivo; conditions: 10 mg/kg pretreatment; apomorphine 1 mg/kg
# Excerpt: Apomorphine-induced behavioral characteristics in the rodent are considered to involve dopamine agonist action on striatal and mesolimbic dopamine receptors. […] Among such induced behavioral characteristics are circling, climbing and stereotypy.
# [4] = tested on: striatal dopamine receptors; test: Apomorphine-induced circling in unilateral striatectomized mice; type: in vivo
# Description: Among such induced behavioral characteristics are circling, climbing and stereotypy.
# Male albino mice in the weight range of 35-40 grams were used in the determination of circling behavior. The mice were prepared for circling experiments using standard stereotaxic techniques to place unilateral electrolesions in the right caudate-putamen (1.0 mm anterior to bregma, 2.0 mm lateral and 3.5 mm below the skull surface, 1.5 mA/15 s). […] Those mice circling less than 6 revolutions every 2 minutes were excluded from subsequent studies.
# [5] = biological target: T1, dopamine receptors (^3 H-NPA binding sites)
# [6] = biological target: T2, dopamine-sensitive adenylate cyclase (Rattus norvegicus, UniProt P18901); test: Inhibition of activation of dopamine-sensitive adenylate cyclase in rat striatal homogenates; type: biochemical
# Description: Washed tissue, including one specimen without NCA as a control, was then incubated with zero or 50 μM of dopamine in the presence of an excess of adenosine triphosphate for 2.5 minutes at 37° and the level of cyclic adenosine monophosphate in the incubation mixture with and without dopamine was assayed by a protein binding method. The increase in cyclic adenosine monophosphate levels due to the dopamine was estimated for all conditions.
# [7] = tested on: dopamine receptors; test: Circling/asymmetry in rats after unilateral intrastriatal injection and apomorphine challenge; type: in vivo, rat
# Description: A further behavioral model utilized rats (male, Sprague-Dawley, 300±25 g). […] Bilateral guide cannulae were chronically implanted in the rats, using standard stereotaxic techniques, to allow drug/vehicle injection at the center of the caudate-putamen complex (Ant. 8.0, Lat. +3.0, Vert. +1.5, De Groot, 1959). Fourteen days after cannulation, the animals were manually restrained and the drug in a solvent vehicle was injected in a volume of 4 μliters (1 μliter/min) into the right and left striata, respectively. The 4 μliter contained dosages of 10 μg or 40 μg of the drug.
# The resting asymmetry was particularly evident when the animals were disturbed and was also noted two and five days after the injection of the (-)N-(2-chloroethyl)norapomorphine. By the seventh day the ipsilateral asymmetry was variable and was not apparent by the fourteenth day.
# Again, as in the circling experiments with the mice, it was apparent that the dopamine inhibitory actions of the drug endured for 2 to 4 days. The recovery of the behavioral response possibly reflects the resynthesis of dopamine receptors.
# [8] = biological target: T2, dopamine-sensitive adenylate cyclase; conditions: Walton et al., Eur. J. Pharmacol. 52: 231 (1978); cited from earlier work
# T1 sequence (P61169 whole entry): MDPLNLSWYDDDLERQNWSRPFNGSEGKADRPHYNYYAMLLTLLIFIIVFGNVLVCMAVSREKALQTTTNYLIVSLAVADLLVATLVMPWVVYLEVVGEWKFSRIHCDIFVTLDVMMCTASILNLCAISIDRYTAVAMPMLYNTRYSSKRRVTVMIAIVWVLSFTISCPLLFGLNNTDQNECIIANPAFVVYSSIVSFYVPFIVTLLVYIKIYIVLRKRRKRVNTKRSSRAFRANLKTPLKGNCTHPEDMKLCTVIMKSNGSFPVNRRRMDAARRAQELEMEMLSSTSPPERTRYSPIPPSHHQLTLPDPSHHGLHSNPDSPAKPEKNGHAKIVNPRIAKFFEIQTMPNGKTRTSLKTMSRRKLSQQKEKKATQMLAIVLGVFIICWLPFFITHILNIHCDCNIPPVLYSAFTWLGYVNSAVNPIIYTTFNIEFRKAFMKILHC
# T2 sequence (P18901 whole entry): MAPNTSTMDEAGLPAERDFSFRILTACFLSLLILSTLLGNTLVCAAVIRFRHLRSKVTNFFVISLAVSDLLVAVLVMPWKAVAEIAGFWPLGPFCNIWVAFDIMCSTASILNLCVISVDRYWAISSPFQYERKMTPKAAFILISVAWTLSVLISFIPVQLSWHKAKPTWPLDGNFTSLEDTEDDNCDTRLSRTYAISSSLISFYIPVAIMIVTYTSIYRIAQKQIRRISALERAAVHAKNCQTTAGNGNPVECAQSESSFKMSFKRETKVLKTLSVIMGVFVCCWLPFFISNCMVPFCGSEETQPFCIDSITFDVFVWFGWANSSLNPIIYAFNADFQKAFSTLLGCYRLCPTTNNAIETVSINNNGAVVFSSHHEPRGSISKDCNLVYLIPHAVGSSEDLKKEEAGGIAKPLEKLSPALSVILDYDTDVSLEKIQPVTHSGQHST
# T2 sequence (Q04400 whole entry partner): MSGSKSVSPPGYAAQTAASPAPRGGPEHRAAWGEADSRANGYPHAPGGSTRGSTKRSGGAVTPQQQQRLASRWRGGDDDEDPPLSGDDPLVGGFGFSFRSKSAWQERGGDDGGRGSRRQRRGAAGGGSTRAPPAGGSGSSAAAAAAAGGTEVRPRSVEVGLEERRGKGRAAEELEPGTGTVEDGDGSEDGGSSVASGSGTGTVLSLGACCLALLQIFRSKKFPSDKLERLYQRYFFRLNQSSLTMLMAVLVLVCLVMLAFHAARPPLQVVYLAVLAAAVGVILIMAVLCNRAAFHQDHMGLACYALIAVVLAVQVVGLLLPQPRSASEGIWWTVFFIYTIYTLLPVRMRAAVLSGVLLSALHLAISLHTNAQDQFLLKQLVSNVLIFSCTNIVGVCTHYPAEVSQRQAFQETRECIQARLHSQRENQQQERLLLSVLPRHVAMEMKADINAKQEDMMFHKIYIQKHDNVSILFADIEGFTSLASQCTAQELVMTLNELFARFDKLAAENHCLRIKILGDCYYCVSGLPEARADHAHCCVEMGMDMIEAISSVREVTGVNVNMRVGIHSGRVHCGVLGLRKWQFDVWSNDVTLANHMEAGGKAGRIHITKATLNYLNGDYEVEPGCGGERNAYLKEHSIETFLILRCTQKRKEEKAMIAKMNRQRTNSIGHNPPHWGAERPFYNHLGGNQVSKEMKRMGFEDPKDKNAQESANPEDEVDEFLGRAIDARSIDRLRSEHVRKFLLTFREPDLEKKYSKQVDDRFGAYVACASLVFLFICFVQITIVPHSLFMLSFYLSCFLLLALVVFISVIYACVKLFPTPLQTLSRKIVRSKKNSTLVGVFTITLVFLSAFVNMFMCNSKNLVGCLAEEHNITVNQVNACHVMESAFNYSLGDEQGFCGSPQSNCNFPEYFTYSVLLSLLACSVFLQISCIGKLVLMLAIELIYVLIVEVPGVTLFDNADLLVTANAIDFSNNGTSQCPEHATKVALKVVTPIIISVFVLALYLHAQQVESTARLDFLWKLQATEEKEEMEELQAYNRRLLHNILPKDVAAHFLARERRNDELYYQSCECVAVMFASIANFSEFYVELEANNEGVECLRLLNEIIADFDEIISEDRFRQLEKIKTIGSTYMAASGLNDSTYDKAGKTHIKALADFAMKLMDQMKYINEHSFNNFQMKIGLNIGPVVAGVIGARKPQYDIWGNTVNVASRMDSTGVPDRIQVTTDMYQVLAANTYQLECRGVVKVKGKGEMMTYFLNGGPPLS
structure (smiles),measurement,setting,value
OCCN1CCc2cccc3c2[C@H]1Cc1ccc(O)c(O)c1-3 [(-)N-(2-hydroxyethyl)norapomorphine.HCl],reversal of inhibition of ^3 H-NPA binding by washing of membranes,[1]; 5×10^-7 M,reversed
same,effect on apomorphine climbing,[2]; 90-minute pretreatment,failed to modify apomorphine climbing
Oc1ccc2c(c1O)-c1cccc3c1[C@@H](C2)N(CCCl)CC3 [NCA],"effect on submaximal stereotypic effect of apomorphine (repetitive sniffing, periodic biting, continuous biting)",[3],failed to modify
same,IC50,[1],1800 nM
same,reversal of inhibition of ^3 H-NPA binding by washing of membranes,[1]; 5×10^-6 M,not reversed
same,reversal of prevention of ^3 H-NPA binding by washing,"[1]; NCA 10^-5 M, repeated washing",not reversed by repeated washing
same,inhibition of ^3 H-NPA binding in the presence of blocking agents,"[1]; high concentrations of phentolamine and propranolol, NCA 3×10^-5 M",also apparent
same,inhibition of apomorphine-induced circling,"[4]; 1.0 mg/kg s.c., apomorphine 0.5 mg/kg s.c., 4 hours to 7 days after administration",essentially no inhibition
same,reduction in circling,"[4]; higher dosage levels (2.0 or 4.0 mg/kg s.c.), after 2 days",still apparent
same,reduction in circling,"[4]; highest dosage level (4.0 mg/kg s.c.), after 5 days",39%
same,reduction of number of ^3 H-NPA binding sites,"[5]; 40 μg NCA intrastriatal, day 2",approximately 50%
same,number of sites available for ^3 H-NPA binding,"[5]; 40 μg NCA intrastriatal, days 7 and 14",returned to control values
same,percent dopamine stimulation of cAMP production at 10 µM,"[6]; 10 min, NCA 10 μM, 10 min 37° C. preincubation, washed, 50 μM dopamine",84%
same,percent dopamine stimulation of cAMP production at 30 µM,"[6]; 10 min, NCA 30 μM, 10 min 37° C. preincubation, washed, 50 μM dopamine",44%
same,percent dopamine stimulation of cAMP production at 75 µM,"[6]; 10 min, NCA 75 μM, 10 min 37° C. preincubation, washed, 50 μM dopamine",8%
same,inhibition at 10 µM,[6]; NCA 10 μM,16%
same,inhibition at 30 µM,[6]; NCA 30 μM,56%
same,inhibition at 75 µM,[6]; NCA 75 μM,92%
same,circling on apomorphine challenge,"[7]; 40 μg intrastriatal, apomorphine 0.5 mg/kg s.c., four hours and two days, to a lesser extent 5 days after administration",precipitated a clear circling behavior
same,ipsilateral asymmetry/circling movements after unilateral injection into the caudate-putamen,[7]; 10 and 40 μg intrastriatal,induced ipsilateral asymmetry/circling movements within an hour
same,resting ipsilateral asymmetry,[7]; fourteenth day,not apparent
same,resting ipsilateral asymmetry,[7]; seventh day,variable
same,resting ipsilateral asymmetry,[7]; two and five days after injection,noted
same,effect on apomorphine climbing index,[2]; 10 mg/kg i.p. pretreatment,reduced this index
same,effect on apomorphine climbing index,[2]; 20 mg/kg i.p. pretreatment,greatly reduced
same,duration of reduction of climbing index,[2]; after i.p. administration,up to between four and five days
"CCCN1CCc2cccc3c2C1Cc1ccc(O)c(O)c1-3 (single isomer, unassigned) [^3 H-NPA, ^3 H-N-n-propylnorapomorphine, reference compound]",Bmax,[1],190 fmol/mg protein
same,density of ^3 H-NPA binding sites,[5],approximately 180 fmol/mg protein
"COc1ccc2c(c1O)-c1cccc3c1[C@@H](C2)N(CCCl)CC3 [(-)N-(2-chloroethyl)norapocodiene.HCl, reference compound]",effect on apomorphine climbing,[2]; four-hour pretreatment,failed to modify apomorphine climbing
CC(COc1ccccc1)N(CCCl)Cc1ccccc1 (centres unmarked) [phenoxybenzamine],action on dopamine-sensitive adenylate cyclase,[8],irreversible blocking action
CN1CCc2cccc3c2[C@H]1Cc1ccc(O)c(O)c1-3 [apomorphine],circling behavior,"[4]; 0.25-1 mg/kg apomorphine, dose-dependent",2-10 revolutions every 12 minutes
"COc1ccc2c(c1OC(C)=O)-c1cc(O)cc3c1C(C2)N(C(=O)CN(CCCl)CCCl)CC3 (centres unmarked) [6-[2-bis(2-chloroethyl)amino]acetyl-11-acetoxy-2-hydroxy-10-methoxy-apoporphine hemihydrate, reference compound]",effect on apomorphine climbing,[2]; four-hour pretreatment,failed to modify apomorphine climbing

# From patent publication US4353912A, “N-Haloalkyl nor apomorphines and method of inactivating dopamine receptor sites and enhancing dopaminergic activity therewith” (Northeastern University, priority 1980, dated 1982)
